Laboratory results taken from patent US9499612B2, “Antigen binding constructs” (Glaxo Group Limited, priority 2011, dated 2016).

Tests used:
[1] = tested on: human VEGF165 induced blood-retinal breakdown; experiment: VEGF induced blood-retinal breakdown: rabbit retinal leakage model; format: in vivo; details: for % reduction vs vehicle: Table 4B
Experimental: The high (H) and low (L) doses were based upon a molar equivalent dosing to Ranibizumab ([…] ™). The low dose, (L), was one third of the high dose.
In brief, all molecules were buffer exchanged using PD-10 Desalting Columns (GE Healthcare) into 10 mM Histidine HCl, 10% α-αtrehalose dehydrate, 0.01% PolySorbate 80, pH 5.5, and concentrated to the desired concentration using VIVASPIN™ 20, molecular weight cut off 5000 Da, spin concentrations (Sartorius Stedim Biotech), both were used according to manufacturer's instructions.
Ninety-eight (98) GD79B pigmented rabbits were randomly divided into nine (9) groups of ten (10) animals and one (1) group of eight (8) animals (used for KENACORT™ control). Each group was subdivided into 2 groups corresponding to 2 experimental sets. Test items, reference or control items were administered by intravitreal injection (IVT, 50 μL) into the right eyes on Day-7. Left eyes remained untreated and served as a negative control. On Day 0, right eyes were induced for blood retinal barrier (BRB) breakdown with a single intravitreal injection of 500 ng rhVEGF165 (vascular permeability inducer). Sodium fluorescein was intravenously injected to all groups 47 h after the VEGF challenge (Day 2). Within 10 min after the injection of the tracer a retinal angiography was performed on right eye and pictures were taken. Ocular fluorescein contents in the vitreoretinal compartment were measured 1 h later using non-invasive scanning ocular fluorophotometry. A right eye/left eye fluorescein content (AUC) Rt ratio was determined for retinal permeability evaluation. At the end of the evaluation period (Day 2), animals were euthanized and right eyes of all animals were enucleated. […] Fluorescein angiograms were collected for qualitative assessment.
One hundred and forty (140) HY79B pigmented rabbits were randomly divided into eleven (11) groups of twelve (12) animals and one (1) group of eight animals, each group was sub-divided into 4 experimental sets of 3 animals, bar the KENACORT™ treated group, (4 sets of 2 animals), (see Table 15A).

[2] = tested on: VEGF165 induced proliferation of human umbilical vein endothelial cells; experiment: Human Umbilical Cord Endothelial Cell (HUVEC) proliferation assay; format: cell-based
Experimental: The assay measures the extent of endothelial cell proliferation induced by a defined concentration of VEGF165 and the ability of VEGF antagonists to block this effect. HUVECs were seeded at 5000 cells per well in 96-well gelatine-coated plates, leaving outer wells free of cells, and incubated for several hours to permit adherence. Test molecules were assayed at equimolar concentrations (max 3.33×10^−08 M) with a 2-fold serial dilution, each in triplicate. The VEGF165 was prepared in basal medium to achieve 75 ng/ml final concentration. Medium was removed manually from the cell monolayers and 50 μl basal media was added to prevent the cells from drying out. […] Cells were incubated for 72 hrs, after which time the total number of cells was determined using Cell Titre Glo. […]
(§1) PRISM™ using a Sigmodial curve fit, variable slope cf a non-linear regression (variable slope). […] Estimates of the curve maxima and the standard error were analysed using a weighted mixed model analysis of variance, using 1/(standard error)^2, [SE]^2, as a weighting. […]
as §1

[3] = dose H, VEGF induced retinal leakage

Molecule | % reduction vs vehicle ([1]; 2 000 μg/eye) | % reduction ([1]; Table 15B (ii), 2 000 ug/eye) | inhibition of HUVEC proliferation ([2]; Example 8, 75 ng/ml VEGF165, 72 hrs) | inhibition of VEGF driven HUVEC proliferation ([2]; Example 18) | % reduction vs vehicle [1, 3] | % reduction vs vehicle ([1]; low dose (L))
C[C@]12C=CC(=O)C=C1CC[C@H]1[C@@H]3C[C@@H](O)[C@](O)(C(=O)CO)[C@@]3(C)C[C@H](O)[C@@]12F [KENACORT ™, Triamcinalone, reference compound] | 85% | 80% |  |  |  | 
Bevacizumab [AVASTIN ™, reference compound] |  |  | ~100% | ~100% | 75% | 
Ranibizumab [LUCENTIS ™, reference compound] |  |  |  |  | 82% | 78%
